From PubChem BioAssay (NCI)
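Five concentrations, 48 hours, 96-well plates. Abbreviation: GI50, concentration required for 50% inhibition of growth. TGI is the concentration that stops growth completely.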

What was measured:
Experiment in all cases: DTP human tumour cell line panel, 48 h
COLO 205 colon = tested on: COLO 205 colon
HCC-2998 colon = tested on: HCC-2998 colon
HCT-116 colon = tested on: HCT-116 colon
HOP-62 NSCLC = tested on: HOP-62 NSCLC
SK-MEL-5 melanoma = tested on: SK-MEL-5 melanoma
SK-OV-3 ovarian = tested on: SK-OV-3 ovarian
SNB-19 CNS = tested on: SNB-19 CNS
SR leukemia = tested on: SR leukemia
UACC-257 melanoma = tested on: UACC-257 melanoma
OVCAR-3 ovarian = tested on: OVCAR-3 ovarian

Compound | TGI (COLO 205 colon) [µM] | TGI (HCC-2998 colon) [µM] | TGI (HCT-116 colon) [µM] | TGI (HOP-62 NSCLC) [µM] | TGI (SK-MEL-5 melanoma) [µM] | TGI (SK-OV-3 ovarian) [µM] | TGI (SNB-19 CNS) [µM] | TGI (SR leukemia) [µM] | TGI (UACC-257 melanoma) [µM] | TGI (OVCAR-3 ovarian) [µM] | GI50 (COLO 205 colon) [µM] | GI50 (HCC-2998 colon) [µM] | GI50 (HOP-62 NSCLC) [µM] | GI50 (OVCAR-3 ovarian) [µM] | GI50 (SK-MEL-5 melanoma) [µM] | GI50 (SK-OV-3 ovarian) [µM] | GI50 (SNB-19 CNS) [µM] | GI50 (SR leukemia) [µM] | GI50 (UACC-257 melanoma) [µM]
N#C/C(=C\c1cccc(Br)c1)c1nc2ccccc2c(=O)[nH]1 | > 100 | > 100 | > 100 | 62.7 | > 100 | > 100 | > 100 | > 100 | > 100 | – | – | – | – | – | – | – | – | – | –
COCC#C[C@@]1(O)CCCCC1CC(OC)OC (stereo partly drawn) | > 100 | > 100 | > 100 | > 100 | > 100 | > 100 | > 100 | > 100 | > 100 | – | – | – | – | – | – | – | – | – | –
CCCCCCCCCCCCOCCOCCOCCOCCOCCOCC(=O)NC(Cc1ccccc1)C(=O)Oc1ccc([N+](=O)[O-])cc1 (stereo not drawn) | 35.9 | – | > 100 | > 100 | > 100 | > 100 | > 100 | 63.9 | > 100 | 51.9 | – | – | – | – | – | – | – | – | –
C[N+]1(CCN=C=NC2CCCCC2)CCOCC1 | > 100 | – | > 100 | > 100 | > 100 | > 100 | > 100 | > 100 | > 100 | > 100 | – | – | – | – | – | – | – | – | –
CCCCCCCCCCCCNC(=O)CCC(NC(=O)c1ccc(N(C)Cc2cnc3nc(N)nc(N)c3n2)cc1)C(=O)NCCCCCCCCCCCC (stereo not drawn) | > 100 | > 100 | > 100 | 95.6 | > 100 | – | 72.1 | 32.3 | > 100 | > 100 | – | – | – | – | – | – | – | – | –
c1c(N2CCOCC2)ssc1=[N+]1CCOCC1 | – | > 100 | > 100 | > 100 | > 100 | > 100 | > 100 | > 100 | > 100 | – | – | – | – | – | – | – | – | – | –
CN(C)CCCNc1cc(O)c2c(c1O)C(=O)c1ccccc1C2=O | 24.5 | – | 18.4 | 23.3 | 26.5 | 24.8 | 21.8 | 15.9 | 26.6 | 23.5 | – | – | – | – | – | – | – | – | –
N#Cc1nc(C2CCC(=O)O2)oc1N (stereo not drawn) | > 100 | – | > 100 | > 100 | > 100 | > 100 | > 100 | > 100 | > 100 | > 100 | – | – | – | – | – | – | – | – | –
CN(C)CCNc1c([N+](=O)[O-])sc2ccc(Cl)cc12 | > 100 | > 100 | – | > 100 | > 100 | > 100 | > 100 | > 100 | – | > 100 | – | – | – | – | – | – | – | – | –
O=c1c(-c2ccccc2)c(SCCN2CCCCCC2)n(-c2ccccc2)c(=S)n1-c1ccccc1 | > 100 | 12.9 | – | > 100 | > 100 | > 100 | – | 84.5 | > 100 | > 100 | – | – | – | – | – | – | – | – | –
O=c1[nH]c(=O)n(C2CC(O)C(CO)O2)cc1OC/C=C/Cc1ccccc1 (stereo not drawn) | > 100 | – | > 100 | > 100 | > 100 | > 100 | > 100 | > 100 | > 100 | > 100 | – | – | – | – | – | – | – | – | –
CCN(CCCCCCCCCCN1CC(=O)N(CCCCCCCCCCN(CC)Cc2ccccc2OC)CC1=O)Cc1ccccc1OC | 2.52 | 2.9 | – | 3.05 | 2.7 | 3.68 | 10.5 | 2.37 | 3.34 | 2.48 | 1.05 | 1.46 | 1.56 | 1.18 | 1.36 | 1.83 | 3.18 | 0.355 | 1.7
N#Cc1ccc(-c2nc(C#N)c(N)o2)cc1 | > 10 | > 10 | > 10 | > 10 | > 10 | > 10 | > 10 | > 10 | > 10 | – | – | – | – | – | – | – | – | – | –
CC(C)=CCC12Cc3ccc(O)cc3C(C(C)CN1)C2C (stereo not drawn) | > 100 | 48.2 | > 100 | > 100 | – | > 100 | > 100 | > 100 | > 100 | – | – | – | – | – | – | – | – | – | –
CCCCCCc1cc2cc(-c3csc(-c4ccc(OC)cc4)n3)c(=O)oc2cc1O | > 100 | 31.5 | 20.1 | 29.6 | 47.7 | 33.1 | 36 | > 100 | 32.6 | – | – | – | – | – | – | – | – | – | –
COc1ccc(OC)c(NC(=O)C(=O)C(C(=O)c2ccccc2F)C2OC(=O)c3ccccc32)c1 (stereo not drawn) | > 100 | > 100 | > 100 | > 100 | > 100 | > 100 | > 100 | 89.1 | > 100 | – | – | – | – | – | – | – | – | – | –
O=[N+]([O-])/C(Cl)=C(/C(Cl)=C(Cl)Cl)N1CCCCC1 | 22.7 | 33.4 | 18.9 | 40.8 | 20.2 | > 100 | 54.1 | 7.5 | – | 22.8 | – | – | – | – | – | – | – | – | –
